Measurements: ChEMBL document CHEMBL1152723, “Remarkable enhancement in the DNA-binding ability of C2-fluoro substituted pyrrolo[2,1-c][1,4]benzodiazepines and their anticancer potential” (2009)

Experiments:
ACHN = assay: Growth inhibition of human ACHN cells after 48 hrs by sulforhodamine B protein assay; format: functional
HT-29 = assay: Growth inhibition of human HT-29 cells after 48 hrs by sulforhodamine B protein assay; format: functional; conditions: HT-29, 48 h
IGROV-1 = assay: Growth inhibition of human IGROV1 cells after 48 hrs by sulforhodamine B protein assay; format: functional; conditions: IGROV-1, 48 h
HL-60(TB) = assay: Growth inhibition of human HL-60(TB) cells after 48 hrs by sulforhodamine B protein assay; format: functional; conditions: HL-60, 48 h
LOX IMVI = assay: Growth inhibition of human LOXIMVI cells after 48 hrs by sulforhodamine B protein assay; format: functional
A549 = assay: Growth inhibition of human A549 cells after 48 hrs by sulforhodamine B protein assay; format: functional; conditions: A549, 48 h
MDA-MB-468 = assay: Growth inhibition of human MDA-MB-468 cells after 48 hrs by sulforhodamine B protein assay; format: functional; conditions: MDA-MB-468, 48 h
K562 = assay: Growth inhibition of human K562 cells after 48 hrs by sulforhodamine B protein assay; format: functional; conditions: K562, 48 h
T47D = assay: Growth inhibition of human T47D cells after 48 hrs by sulforhodamine B protein assay; format: functional
SK-OV-3 = assay: Growth inhibition of human SKOV3 cells after 48 hrs by sulforhodamine B protein assay; format: functional; conditions: SK-OV-3, 48 h
HOP-62 = assay: Growth inhibition of human HOP62 cells after 48 hrs by sulforhodamine B protein assay; format: functional; conditions: HOP-62, 48 h
EKVX = assay: Growth inhibition of human EKVX cells after 48 hrs by sulforhodamine B protein assay; format: functional
NCI-H322M = assay: Growth inhibition of human NCI-H322M cells after 48 hrs by sulforhodamine B protein assay; format: functional
DNA = assay: Binding affinity to calf thymus DNA assessed as change in melting temperature at a compound to DNA molar ratio of 1:5 at pH 7 by thermal denaturation assay; format: nucleic-acid assay; conditions: Bos taurus
MCF7 = assay: Growth inhibition of human MCF7 cells after 48 hrs by sulforhodamine B protein assay; format: functional; conditions: MCF7, 48 h
UACC-257 = assay: Growth inhibition of human UACC257 cells after 48 hrs by sulforhodamine B protein assay; format: functional; conditions: UACC-257, 48 h
[1] = biological target: T1, Type II restriction enzyme BamHI (Bacillus amyloliquefaciens) (UniProt P23940); assay: Inhibition of Bacillus amyloliquefaciens BamH1-mediated pBR322 cleavage after 16 hrs by RED100-restriction endonuclease digestion assay
T1 sequence (whole entry): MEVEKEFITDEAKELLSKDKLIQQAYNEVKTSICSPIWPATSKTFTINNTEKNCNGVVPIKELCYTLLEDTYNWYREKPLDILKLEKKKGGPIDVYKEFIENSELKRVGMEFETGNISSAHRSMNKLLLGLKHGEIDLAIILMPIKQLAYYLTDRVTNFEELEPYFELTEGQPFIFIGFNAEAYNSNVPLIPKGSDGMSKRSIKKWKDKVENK

SNB-19 = assay: Growth inhibition of human SNB19 cells after 48 hrs by sulforhodamine B protein assay; format: functional; conditions: SNB-19, 48 h
HCT-15 = assay: Growth inhibition of human HCT15 cells after 48 hrs by sulforhodamine B protein assay; format: functional; conditions: HCT-15, 48 h
SF-268 = assay: Growth inhibition of human SF268 cells after 48 hrs by sulforhodamine B protein assay; format: functional; conditions: SF-268, 48 h
UACC-62 = assay: Growth inhibition of human UACC62 cells after 48 hrs by sulforhodamine B protein assay; format: functional; conditions: UACC-62, 48 h
BT-549 = assay: Growth inhibition of human BT549 cells after 48 hrs by sulforhodamine B protein assay; format: functional; conditions: BT-549, 48 h
OVCAR-5 = assay: Growth inhibition of human OVCAR5 cells after 48 hrs by sulforhodamine B protein assay; format: functional; conditions: OVCAR-5, 48 h
HCT-116 = assay: Growth inhibition of human HCT116 cells after 48 hrs by sulforhodamine B protein assay; format: functional; conditions: HCT-116, 48 h
NCI-H522 = assay: Growth inhibition of human NCI-H522 cells after 48 hrs by sulforhodamine B protein assay; format: functional; conditions: NCI-H522, 48 h
DU-145 = assay: Growth inhibition of human DU145 cells after 48 hrs by sulforhodamine B protein assay; format: functional; conditions: DU-145, 48 h
[2] = Growth inhibition of human […] cells after 48 hrs by sulforhodamine B protein assay; format: functional
SR = assay: Growth inhibition of human SR cells after 48 hrs by sulforhodamine B protein assay; format: functional
SF-539 = assay: Growth inhibition of human SF539 cells after 48 hrs by sulforhodamine B protein assay; format: functional; conditions: SF-539, 48 h
NCI-H23 = assay: Growth inhibition of human NCI-H23 cells after 48 hrs by sulforhodamine B protein assay; format: functional; conditions: NCI-H23, 48 h
CCRF-CEM = assay: Growth inhibition of human CCRF-CEM cells after 48 hrs by sulforhodamine B protein assay; format: functional
HCC 2998 = assay: Growth inhibition of human HCC2998 cells after 48 hrs by sulforhodamine B protein assay; format: functional; conditions: HCC 2998, 48 h
OVCAR-3 = assay: Growth inhibition of human OVCAR-3 cells after 48 hrs by sulforhodamine B protein assay; format: functional; conditions: OVCAR-3, 48 h
A498 = assay: Growth inhibition of human A498 cells after 48 hrs by sulforhodamine B protein assay; format: functional; conditions: A498, 48 h
MDA-MB-231 = assay: Growth inhibition of human MDA-MB-231 cells after 48 hrs by sulforhodamine B protein assay; format: functional; conditions: MDA-MB-231, 48 h
KM12 = assay: Growth inhibition of human KM12 cells after 48 hrs by sulforhodamine B protein assay; format: functional; conditions: KM12, 48 h
MOLT-4 = assay: Growth inhibition of human MOLT4 cells after 48 hrs by sulforhodamine B protein assay; format: functional; conditions: MOLT-4, 48 h
M14 = assay: Growth inhibition of human M14 cells after 48 hrs by sulforhodamine B protein assay; format: functional; conditions: M14, 48 h
NCI/ADR-RES = assay: Growth inhibition of human NCI/ADR-RES cells after 48 hrs by sulforhodamine B protein assay; format: functional
U-251 = assay: Growth inhibition of human U251 cells after 48 hrs by sulforhodamine B protein assay; format: functional; conditions: U-251, 48 h
SNB-75 = assay: Growth inhibition of human SNB75 cells after 48 hrs by sulforhodamine B protein assay; format: functional; conditions: SNB-75, 48 h
COLO 205 = assay: Growth inhibition of human COLO205 cells after 48 hrs by sulforhodamine B protein assay; format: functional; conditions: COLO 205, 48 h
SN12C = assay: Growth inhibition of human SN12C cells after 48 hrs by sulforhodamine B protein assay; format: functional
TK-10 = assay: Growth inhibition of human TK10 cells after 48 hrs by sulforhodamine B protein assay; format: functional; conditions: TK-10, 48 h
CAKI-1 = assay: Growth inhibition of human Caki1 cells after 48 hrs by sulforhodamine B protein assay; format: functional; conditions: CAKI-1, 48 h

COc1cc2c(cc1OCCCN1CCN(CCCOc3cc4c(cc3OC)C(=O)N3CC(F)C[C@H]3C=N4)CC1)N=C[C@@H]1CC(F)CN1C2=O (stereo not given in full)
GI50 (ACHN): 150 nM
GI50 (HT-29): 170 nM
GI50 (IGROV-1): < 50 nM
GI50 (HL-60(TB)): < 10 nM
GI50 (LOX IMVI): < 10 nM
GI50 (A549): 120 nM
GI50 (MDA-MB-468): < 10 nM
GI50 (K562): < 10 nM
GI50 (T47D): < 10 nM
GI50 (SK-OV-3): < 70 nM
GI50 (HOP-62): < 10 nM
GI50 (EKVX): 170 nM
GI50 (NCI-H322M): 260 nM
ΔTm (DNA): 37 °C
GI50 (MCF7): < 10 nM
GI50 (UACC-257): 1270 nM
Activity [1]: Dose-dependent effect
GI50 (SNB-19): < 20 nM
GI50 (HCT-15): 2560 nM
GI50 (SF-268): < 10 nM
GI50 (UACC-62): < 80 nM
GI50 (BT-549): < 90 nM
GI50 (OVCAR-5): 160 nM
GI50 (HCT-116): < 20 nM
GI50 (NCI-H522): < 10 nM
GI50 (DU-145): 40 nM
GI50 [2]: < 20 nM
GI50 (SR): < 10 nM
GI50 (SF-539): < 10 nM
GI50 (NCI-H23): < 30 nM
GI50 (CCRF-CEM): < 10 nM
GI50 (HCC 2998): 110 nM
GI50 (OVCAR-3): < 40 nM
GI50 (A498): < 60 nM
GI50 (MDA-MB-231): 130 nM
GI50 (KM12): 100 nM
GI50 (MOLT-4): < 10 nM
GI50 (M14): < 30 nM
GI50 (NCI/ADR-RES): 5250 nM
GI50 (U-251): < 10 nM
GI50 (SNB-75): < 30 nM
GI50 (COLO 205): < 40 nM
GI50 (SN12C): < 10 nM
GI50 (TK-10): 250 nM
GI50 (CAKI-1): 20 nM
